Results: paper PMC9409043, “Serotonin 5-HT6 Receptor Ligands and Butyrylcholinesterase Inhibitors Displaying Antioxidant Activity—Design, Synthesis and Biological Evaluation of Multifunctional Agents against Alzheimer’s Disease” (International Journal of Molecular Sciences, 2022)
Several values for one entry are separate records, joined by “and”; a condition that tells them apart may be missing. Equal values may be shown once.

Columns and labels:
[1] = target: T1, BuChE isolated from human plasma (hBuChE) (Homo sapiens, UniProt P06276); test: biochemical; type: biochemical; settings: for IC50: mean ± SEM of at least three experiments
T1 construct: BuChE isolated from human plasma (hBuChE); tissue Vivonics (Bedford, MA, USA), donated; host or cells: human plasma
Procedure: (§1) 5-HT6R binding affinity and cholinesterase (AChE/BuChE) inhibitory activity. […] Their affinities for recombinant human 5-HT6 receptors (h5-HT6R) were tested in a radioligand binding assay and the inhibitory potencies against human recombinant AChE (hAChE) and BuChE isolated from human plasma (hBuChE) in the spectrophotometric Ellman’s assay.
(§2) The assay was based on spectrophotometric Ellman’s method and was performed in 96-well microplates with the reagents purchased from Sigma-Aldrich (Steinheim, Germany) according to the previously described procedure. hBuChE was kindly donated by Vivonics (Bedford, MA, USA). […] After 5 minutes of the enzymatic reaction, the changes in absorbance were measured at 412 nm, using a microplate reader (SPECTROstar Nano; BMG Labtech, Ortenberg, Germany). First, compounds were tested at the screening concentration of 10 µM. Based on the equation 100 − (S/B) × 100 (where S and B were the respective enzyme activities with and without the test sample, respectively) the percentage inhibition of each enzyme for each compound was calculated. […] The IC50 values were calculated using nonlinear regression (GraphPad Prism 5; GraphPad Software, San Diego, CA, USA) by plotting the residual enzyme activities against the applied inhibitor concentration. […] All experiments were performed in triplicate.

[2] = target: T2, human recombinant AChE (hAChE) (Homo sapiens, UniProt P22303); test: biochemical; settings: mean ± SEM of at least three experiments
T2 construct: purchased Sigma-Aldrich (Steinheim, Germany)
Procedure: as §1, §2

human 5-HT6 receptor = target: T3, human 5-HT6 receptor (Homo sapiens, UniProt P50406); test: 5-HT6 receptor radioligand binding assay ([3H]-LSD, CHO-K1 membranes)
T3 construct: purchased PerkinElmer; host or cells: CHO-K1 cells, stably transfected (membrane preparation)
Procedure: 5-HT6R binding affinity and cholinesterase (AChE/BuChE) inhibitory activity. We evaluated the pharmacological properties of the final compounds 12–19 in vitro according to the previously described, well-established protocols. Their affinities for recombinant human 5-HT6 receptors (h5-HT6R) were tested in a radioligand binding assay and the inhibitory potencies against human recombinant AChE (hAChE) and BuChE isolated from human plasma (hBuChE) in the spectrophotometric Ellman’s assay. […].
We prepared 10 mM of stock solutions of tested compounds in DMSO. Serial dilutions of compounds were prepared in a 96-well microplate in assay buffers using the automated pipetting system epMotion 5070 (Eppendorf). Each compound was tested in 8 concentrations from 10^−5 to 10^−12 M (final concentration).
The radioligand binding assay was performed using membranes from CHO-K1 cells stably transfected with the human 5-HT6 receptor (PerkinElmer) according to the previously described procedure. All assays were carried out in duplicates. We prepared 50 µL working solution of the tested compounds, 50 µL [^3H]-LSD (final concentration 2.5 nM) and 150 µL diluted membranes (15 µg protein per well) in assay buffer (50 mM Tris, pH 7.4, 10 mM MgCl2, 0.1 mM EDTA) and transferred them to polypropylene 96-well microplates using a 96-well pipetting station Rainin Liquidator (MettlerToledo). Methiothepin (10 μM) was used to define nonspecific binding. The microplate was covered with sealing tape, mixed and incubated for 60 min at 27 °C. The reaction was terminated by rapid filtration through GF/B filter mate presoaked with 0.5% polyethyleneimine for 30 min. Ten rapid washes with 200 µL 50 mM Tris buffer (4 °C, pH 7.4) were performed using the automated harvester system Harvester-96 MACH III FM (Tomtec). The filter mates were dried at 37 °C in a forced air fan incubator and then solid scintillator MeltiLex was melted on filter mates at 90 °C for 5 min. Radioactivity was counted in MicroBeta2 scintillation counter (PerkinElmer). Data were fitted to a one-site curve-fitting equation with Prism 6 (GraphPad Software) and Ki values were estimated from the Cheng−Prusoff equation.

[3] = ABTS free radical scavenging assay
Description: Antioxidant activity. As mentioned before, oxidative stress is one of the components of AD pathomechanism and is characterised by an imbalance in the production of ROS. One of the mechanisms by which antioxidants reduce the concentration of ROS and therefore prevent or slow the cell damage caused by free radicals is scavenging them. Thus, we tested the scavenging ability of compounds 12–19 in the spectrophotometric ABTS assay that we used before. In this assay, the ability of compounds to scavenge ABTS^• radicals, which are generated from 2,2’-azino-bis(3-ethylbenzothiazoline-6-sulphonic acid) (ABTS), is measured. We tested the compounds at three concentrations: 30, 75 and 150 μM after 5, 30 and 60 min of incubation using Trolox, a water-soluble vitamin E analogue, as a reference (Table S1 in Supporting information).
The spectrophotometric ABTS assay was performed in 96-well microplates with the reagents purchased from Sigma-Aldrich (Steinheim, Germany) according to the previously described procedure. Stock solutions of the tested compounds (6.4 mM) and reagents were prepared in DMSO and water, respectively. 2,2′-Azino-bis(3-ethylbenzothiazoline-6-sulfonic acid) free radical (ABTS^•) was prepared by mixing the stock solution of ABTS (7 mM) and […] (2.45 mM) in ratio 1:1. The mixture was kept in the dark at 4 °C for 16 h. The obtained solution of (ABTS^•) was diluted with water 20 times. Then, the test compound or water or mixture of DMSO/water in the appropriate ratio (0.02 mL) was added to ABTS^• solution (0.18 mL). The three concentrations of the test compounds and Trolox were tested in triplicate: 0.15, 0.075 and 0.03 mM. Changes in absorbance were measured at 734 nm after 5, 30 and 60 min, using a microplate reader (SPECTROstar Nano; BMG Labtech, Ortenberg, Germany). Based on the equation ((A0 − A)/A0) × 100% (where A0 and A were the absorbances without and with the test compound, respectively) the percentage of free radical scavenging activity was calculated. The results are presented as mean ± SD.

T3 sequence (P50406 whole entry): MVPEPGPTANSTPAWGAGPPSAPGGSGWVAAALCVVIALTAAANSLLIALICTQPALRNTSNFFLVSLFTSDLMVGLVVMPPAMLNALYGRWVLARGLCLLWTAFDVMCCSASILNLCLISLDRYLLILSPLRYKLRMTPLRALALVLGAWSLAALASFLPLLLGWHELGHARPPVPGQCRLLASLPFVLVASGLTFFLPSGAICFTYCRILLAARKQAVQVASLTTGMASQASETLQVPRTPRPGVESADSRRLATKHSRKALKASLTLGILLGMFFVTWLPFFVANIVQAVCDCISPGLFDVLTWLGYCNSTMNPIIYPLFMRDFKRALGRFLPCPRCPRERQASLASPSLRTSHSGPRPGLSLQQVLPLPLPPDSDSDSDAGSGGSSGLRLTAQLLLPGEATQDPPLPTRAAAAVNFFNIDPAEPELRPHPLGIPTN
T2 sequence (P22303 32-614): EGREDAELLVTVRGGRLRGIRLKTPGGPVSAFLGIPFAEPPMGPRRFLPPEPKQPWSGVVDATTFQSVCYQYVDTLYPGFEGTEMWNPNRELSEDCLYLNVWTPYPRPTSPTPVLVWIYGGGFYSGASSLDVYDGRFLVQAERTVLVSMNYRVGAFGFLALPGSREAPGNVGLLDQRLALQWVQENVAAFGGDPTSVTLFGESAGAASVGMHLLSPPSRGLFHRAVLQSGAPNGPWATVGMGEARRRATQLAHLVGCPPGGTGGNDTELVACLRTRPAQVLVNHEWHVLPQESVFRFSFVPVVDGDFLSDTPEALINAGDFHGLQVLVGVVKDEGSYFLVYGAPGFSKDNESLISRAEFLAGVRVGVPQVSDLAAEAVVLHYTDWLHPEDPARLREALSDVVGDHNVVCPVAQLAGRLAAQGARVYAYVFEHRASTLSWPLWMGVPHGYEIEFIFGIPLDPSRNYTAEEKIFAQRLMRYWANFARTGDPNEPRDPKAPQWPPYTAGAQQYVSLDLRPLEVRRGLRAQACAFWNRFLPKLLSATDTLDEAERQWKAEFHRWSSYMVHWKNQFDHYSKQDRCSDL
T1 sequence (P06276 29-602): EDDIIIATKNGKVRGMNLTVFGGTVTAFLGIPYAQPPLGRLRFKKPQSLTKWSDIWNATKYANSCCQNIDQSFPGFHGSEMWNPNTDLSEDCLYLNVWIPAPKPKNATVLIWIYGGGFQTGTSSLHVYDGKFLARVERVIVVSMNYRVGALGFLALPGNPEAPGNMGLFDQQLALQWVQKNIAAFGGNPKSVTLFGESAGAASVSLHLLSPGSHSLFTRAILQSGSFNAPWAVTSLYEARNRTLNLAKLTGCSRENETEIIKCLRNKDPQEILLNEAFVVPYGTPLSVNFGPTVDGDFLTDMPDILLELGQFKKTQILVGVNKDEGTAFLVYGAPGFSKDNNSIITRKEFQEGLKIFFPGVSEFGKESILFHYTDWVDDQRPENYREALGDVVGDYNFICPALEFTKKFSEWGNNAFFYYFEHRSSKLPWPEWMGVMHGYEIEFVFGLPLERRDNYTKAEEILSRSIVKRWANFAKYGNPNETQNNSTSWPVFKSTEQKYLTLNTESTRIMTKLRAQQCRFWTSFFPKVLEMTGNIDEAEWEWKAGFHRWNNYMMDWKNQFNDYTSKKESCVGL

| SMILES | fold higher potency against hBuChE than hAChE ([1]; hAChE IC50 vs. hBuChE IC50) [fold] | IC50 [1] [nM] | IC50 [2] [nM] | Ki (human 5-HT6 receptor) [nM] | % of ABTS• reduction ± SD ([3]; 30 µM, 5 min) [%] | % of ABTS• reduction ± SD ([3]; 30 µM, 30 min) [%] | % of ABTS• reduction ± SD ([3]; 30 µM, 60 min) [%] | % of ABTS• reduction ± SD ([3]; 75 µM, 5 min) [%] | % of ABTS• reduction ± SD ([3]; 75 µM, 30 min) [%] | % of ABTS• reduction ± SD ([3]; 75 µM, 60 min) [%] | % of ABTS• reduction ± SD ([3]; 150 µM, 5 min) [%] | % of ABTS• reduction ± SD ([3]; 150 µM, 30 min) [%] | % of ABTS• reduction ± SD ([3]; 150 µM, 60 min) |
| --- | --- | --- | --- | --- | --- | --- | --- | --- | --- | --- | --- | --- | --- |
| O=S(=O)(c1ccccc1)n1ccc2c(OCCNCCCC3CCN(Cc4ccccc4)CC3)cccc21 [Compound 14, 3-(1-Benzylpiperidin-4-yl)-N-(2-((1-(phenylsulfonyl)-1H-indol-4-yl)oxy)ethyl)propan-1-amine] | 60 | 16 ± 1 | 930 ± 35 | 22 ± 2 | 5±3 | 5±3 | 6±3 | 13±1 | 18±0 | 21±0 | 20±0 | 29±0 | 35±0% and 35% |
| O=S(=O)(c1ccccc1)N1CCc2c(OCCNCC3CCN(Cc4ccccc4)CC3)cccc21 [Compound 15, N-((1-Benzylpiperidin-4-yl)methyl)-2-((1-(phenylsulfonyl)indolin-4-yl)oxy)ethan-1-amine] |  | 5410 ± 100 | 8210 ± 225 | 267 ± 9 | 10±0 | 10±1 | 11±0 | 11±1 | 13±1 | 15±1 | 19±1 | 29±1 | 36±4% |
| O=c1[nH]c2c(OCCNCCC3CCN(Cc4ccccc4)CC3)cccc2n1Cc1ccccc1 [Compound 18, 1-Benzyl-4-(2-((2-(1-benzylpiperidin-4-yl)ethyl)amino)ethoxy)-1,3-dihydro-2H-benzo[d]imidazol-2-one] |  | 1160 ± 24 | 2860 ± 68 | 142 ± 20 | 10±1 | 23±1 | 27±1 | 11±1 | 31±1 | 36±2 | 13±0 | 33±0 | 40±0% |
